Drawing on patent publication US9108973B2, “3,5-disubstituted alkynylbenzene compound and salt thereof” (Taiho Pharmaceutical Co., Ltd., priority 2012, dated 2015), this text covers IC50 for two molecules.

Where two headings read alike, the source gives them in different places.

For this test, the target named is purified recombinant human FGFR2 protein (Homo sapiens (Human), UniProt P21802). The test can be described thus: Measurement of inhibitory effect on FGFR2 kinase activity. It counts as biochemical.
Sequence of purified recombinant human FGFR2 protein (P21802 22-821): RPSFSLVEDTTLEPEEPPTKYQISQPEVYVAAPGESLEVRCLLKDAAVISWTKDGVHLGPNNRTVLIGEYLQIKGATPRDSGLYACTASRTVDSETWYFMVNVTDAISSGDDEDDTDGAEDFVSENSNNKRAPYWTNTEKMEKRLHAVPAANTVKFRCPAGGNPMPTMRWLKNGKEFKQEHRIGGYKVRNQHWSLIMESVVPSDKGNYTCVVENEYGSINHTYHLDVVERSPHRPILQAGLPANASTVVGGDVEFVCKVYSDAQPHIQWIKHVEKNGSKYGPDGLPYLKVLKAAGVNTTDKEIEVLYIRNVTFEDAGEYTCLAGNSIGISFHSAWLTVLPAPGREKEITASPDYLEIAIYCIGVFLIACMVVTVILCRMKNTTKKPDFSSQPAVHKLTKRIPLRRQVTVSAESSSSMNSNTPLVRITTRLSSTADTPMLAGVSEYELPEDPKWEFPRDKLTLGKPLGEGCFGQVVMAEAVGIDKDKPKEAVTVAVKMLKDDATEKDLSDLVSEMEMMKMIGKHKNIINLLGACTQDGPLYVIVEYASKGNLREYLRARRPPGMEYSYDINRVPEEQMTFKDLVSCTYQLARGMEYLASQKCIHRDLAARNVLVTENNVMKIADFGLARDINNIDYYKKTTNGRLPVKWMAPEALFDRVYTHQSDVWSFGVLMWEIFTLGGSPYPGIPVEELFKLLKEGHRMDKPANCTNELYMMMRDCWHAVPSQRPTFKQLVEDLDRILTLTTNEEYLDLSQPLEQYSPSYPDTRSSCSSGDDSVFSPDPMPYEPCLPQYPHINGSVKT

Method: Measurement of Inhibitory Effect on FGFR2 Kinase Activity
EDTA (final concentration: 30 mM) diluted with a separation buffer (Caliper Life Sciences, Inc.) was added thereto to terminate the kinase reaction. […] The level of phosphorylation was determined from the quantitative ratio.

Broadly, the IC50 is the concentration at which inhibition is half-maximal. In the case of `CC(C)c1cc(C#Cc2nn([C@H]3CCN(C(=O)/C=C/CN(C)C)C3)c3ncnc(N)c23)cc(C(C)C)c1` [Ref. Ex. Compound 4, (S)-1-(3-(4-amino-3-((3,5-diisopropylphenyl)ethynyl)-1H-pyrazolo[3,4-d]pyrimidin-1-yl)pyrrolidin-1-yl)-4-(dimethylamino)but-2-en-1-one], the IC50 (FGFR2 kinase, FL-Peptide 22 substrate, ATP 75 μM, 25° C. for 120 minutes) is over 10 µM. As to `C=CC(=O)N1C[C@@H](n2cc(C#Cc3cc(OC)cc(OC)c3)c3c(N)ncnc32)C[C@H]1C(=O)OC` [Ex. Compound 66, (2S,4S)-methyl 1-acryloyl-4-(4-amino-5-((3,5-dimethoxyphenyl)ethynyl)-7H-pyrrolo[2,3-d]pyrimidin-7-yl)pyrrolidine-2-carboxylate], the IC50 is under 0.0003 µM.
